Laboratory results reported in ChEMBL document CHEMBL3885881, “DrugMatrix”.

Species on record: Rattus norvegicus
Assay: DrugMatrix - Regimen: Daily Repeat
Assay type: toxicity, organism-based, Sprague-Dawley
Set-up: regimen Daily Repeat, gender Male, age 6-8 weeks
Conditions: in vivo, po, route oral GAVAGE, […]; for ABSOLUTE BASOPHIL / ABSOLUTE EOSINOPHIL / ABSOLUTE LYMPHOCYTE / ABSOLUTE MONOCYTE / ABSOLUTE SEGMENTED NEUTROPHIL / BASOPHIL / EOSINOPHIL / ERYTHROCYTE COUNT / HEMATOCRIT / HEMOGLOBIN / LEUKOCYTE COUNT / LYMPHOCYTE / MEAN CORPUSCULAR HEMOGLOBIN / MEAN CORPUSCULAR HEMOGLOBIN CONCENTRATION / MEAN CORPUSCULAR VOLUME / MONOCYTE / NEUTROPHIL / NUCLEATED RED BLOOD CELLS / PLATELET COUNT: tissue Blood; for ALANINE AMINOTRANSFERASE / ALBUMIN / ALKALINE PHOSPHATASE / ASPARTATE AMINOTRANSFERASE / BLOOD UREA NITROGEN / CARBON DIOXIDE / CHLORIDE / CHOLESTEROL / CREATINE PHOSPHOKINASE / CREATININE / GLUCOSE / LACTATE DEHYDROGENASE / LIPASE / PHOSPHORUS / POTASSIUM / SODIUM / TOTAL BILIRUBIN / TOTAL PROTEIN / URIC ACID: tissue Plasma
[1] = 0 mg/kg, 72 h, dose level Control, time 3 day
[2] = 0 mg/kg, 120 h, dose level Control, time 5 day
[3] = 1 mg/kg, 72 h, dose level Low, time 3 day

O=C(O)COC(=O)Cc1ccccc1Nc1c(Cl)cccc1Cl [ACECLOFENAC]
ABSOLUTE BASOPHIL [1]: 0 CELLS/uL | ABSOLUTE EOSINOPHIL [1]: 0 CELLS/uL | ABSOLUTE LYMPHOCYTE [1]: 9244.83 CELLS/uL | ABSOLUTE MONOCYTE [1]: 102 CELLS/uL | ABSOLUTE SEGMENTED NEUTROPHIL [1]: 869.83 CELLS/uL | BASOPHIL [1]: 0% | EOSINOPHIL [1]: 0% | ERYTHROCYTE COUNT [1]: 5.43 x10E6/uL | HEMATOCRIT [1]: 34.03% | HEMOGLOBIN [1]: 13.27 G/DL | LEUKOCYTE COUNT [1]: 10.22 x10E3/uL | LYMPHOCYTE [1]: 90.33% | MEAN CORPUSCULAR HEMOGLOBIN [1]: 24.48 pg | MEAN CORPUSCULAR HEMOGLOBIN CONCENTRATION [1]: 39.03 G/DL | MEAN CORPUSCULAR VOLUME [1]: 62.75 fL | MONOCYTE [1]: 1% | NEUTROPHIL [1]: 8.67% | NUCLEATED RED BLOOD CELLS [1]: 0.17 /100WBC | PLATELET COUNT [1]: 989 x10E3/uL | ALANINE AMINOTRANSFERASE [1]: 77 u/L | ALBUMIN [1]: 3.97 G/DL | ALKALINE PHOSPHATASE [1]: 464.83 u/L | ASPARTATE AMINOTRANSFERASE [1]: 89.83 u/L | BLOOD UREA NITROGEN [1]: 12.17 mg/dL | CARBON DIOXIDE [1]: 34.17 mmol/L | CHLORIDE [1]: 98.33 MEQ/L | CHOLESTEROL [1]: 75.17 mg/dL | CREATINE PHOSPHOKINASE [1]: 367.67 u/L | CREATININE [1]: 0.16 mg/dL | GLUCOSE [1]: 142.67 mg/dL | LACTATE DEHYDROGENASE [1]: 139.33 u/L | LIPASE [1]: 9.5 u/L | PHOSPHORUS [1]: 10.85 mg/dL | POTASSIUM [1]: 6.38 MEQ/L | SODIUM [1]: 143.2 MEQ/L | TOTAL BILIRUBIN [1]: 0.2 mg/dL | TOTAL PROTEIN [1]: 5.77 G/DL | URIC ACID [1]: 0.7 mg/dL | ABSOLUTE BASOPHIL [2]: 0 CELLS/uL | ABSOLUTE EOSINOPHIL [2]: 0 CELLS/uL | ABSOLUTE LYMPHOCYTE [2]: 8295.33 CELLS/uL | ABSOLUTE MONOCYTE [2]: 84.67 CELLS/uL | ABSOLUTE SEGMENTED NEUTROPHIL [2]: 970 CELLS/uL | BASOPHIL [2]: 0% | EOSINOPHIL [2]: 0% | ERYTHROCYTE COUNT [2]: 5.74 x10E6/uL | HEMATOCRIT [2]: 36.22% | HEMOGLOBIN [2]: 13.85 G/DL | LEUKOCYTE COUNT [2]: 9.35 x10E3/uL | LYMPHOCYTE [2]: 88.67% | MEAN CORPUSCULAR HEMOGLOBIN [2]: 24.13 pg | MEAN CORPUSCULAR HEMOGLOBIN CONCENTRATION [2]: 38.25 G/DL | MEAN CORPUSCULAR VOLUME [2]: 63.08 fL | MONOCYTE [2]: 1% | NEUTROPHIL [2]: 10.33% | NUCLEATED RED BLOOD CELLS [2]: 0.17 /100WBC | PLATELET COUNT [2]: 883.83 x10E3/uL | ALANINE AMINOTRANSFERASE [2]: 64.5 u/L | ALBUMIN [2]: 4.12 G/DL | ALKALINE PHOSPHATASE [2]: 425.67 u/L | ASPARTATE AMINOTRANSFERASE [2]: 88.5 u/L | BLOOD UREA NITROGEN [2]: 14.17 mg/dL | CARBON DIOXIDE [2]: 30.5 mmol/L | CHLORIDE [2]: 100.33 MEQ/L | CHOLESTEROL [2]: 55.33 mg/dL | CREATINE PHOSPHOKINASE [2]: 287.17 u/L | CREATININE [2]: 0.2 mg/dL | GLUCOSE [2]: 162.83 mg/dL | LACTATE DEHYDROGENASE [2]: 111.33 u/L | LIPASE [2]: 10.5 u/L | PHOSPHORUS [2]: 10.32 mg/dL | POTASSIUM [2]: 5.13 MEQ/L | SODIUM [2]: 143.93 MEQ/L | TOTAL BILIRUBIN [2]: 0.17 mg/dL | TOTAL PROTEIN [2]: 5.9 G/DL | URIC ACID [2]: 0.77 mg/dL | ABSOLUTE BASOPHIL [3]: 0 CELLS/uL | ABSOLUTE EOSINOPHIL [3]: 34 CELLS/uL | ABSOLUTE LYMPHOCYTE [3]: 11265.67 CELLS/uL | ABSOLUTE MONOCYTE [3]: 0 CELLS/uL | ABSOLUTE SEGMENTED NEUTROPHIL [3]: 933.67 CELLS/uL | BASOPHIL [3]: 0% | EOSINOPHIL [3]: 0.33% | ERYTHROCYTE COUNT [3]: 5.17 x10E6/uL | HEMATOCRIT [3]: 32.3% | HEMOGLOBIN [3]: 12.7 G/DL | LEUKOCYTE COUNT [3]: 12.23 x10E3/uL | LYMPHOCYTE [3]: 92.33% | MEAN CORPUSCULAR HEMOGLOBIN [3]: 24.6 pg | MEAN CORPUSCULAR HEMOGLOBIN CONCENTRATION [3]: 39.37 G/DL | MEAN CORPUSCULAR VOLUME [3]: 62.53 fL | MONOCYTE [3]: 0% | NEUTROPHIL [3]: 7.33% | NUCLEATED RED BLOOD CELLS [3]: 0 /100WBC | PLATELET COUNT [3]: 1096 x10E3/uL | ALANINE AMINOTRANSFERASE [3]: 63.33 u/L | ALBUMIN [3]: 4.13 G/DL | ALKALINE PHOSPHATASE [3]: 435.67 u/L | ASPARTATE AMINOTRANSFERASE [3]: 81.67 u/L | BLOOD UREA NITROGEN [3]: 12.33 mg/dL | CARBON DIOXIDE [3]: 33 mmol/L | CHLORIDE [3]: 98 MEQ/L | CHOLESTEROL [3]: 77.33 mg/dL | CREATINE PHOSPHOKINASE [3]: 224.33 u/L | CREATININE [3]: 0.13 mg/dL | GLUCOSE [3]: 132.33 mg/dL | LACTATE DEHYDROGENASE [3]: 137.33 u/L | LIPASE [3]: 9.67 u/L | PHOSPHORUS [3]: 11.77 mg/dL | POTASSIUM [3]: 6.44 MEQ/L | SODIUM [3]: 143.43 MEQ/L | TOTAL BILIRUBIN [3]: 0.2 mg/dL | TOTAL PROTEIN [3]: 5.9 G/DL | URIC ACID [3]: 0.77 mg/dL
